Assays:
[1] = biological target: T1, JAK2 (Homo sapiens, UniProt O60674); test: Kinobeads assay, JAK2; assay type: binding; details: mixed Molt4/Ramos lysate, read-out: Inhibition values (IC50) JAK2
T1 construct: endogenous in cells; host or cells: Molt4 (ATCC CRL-1582) and Ramos (ATCC CRL-1596), mixed lysate 1:2
Summary of the method: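 IC50s come from capture competition: compound at various concentrations versus an immobilized aminopyrido-pyrimidine ligand for kinases in 1:2 Molt4/Ramos lysate (10 mg/mL), 3 h in a cold room. Captured JAK-family kinases were measured by specific-antibody dot blot with Odyssey infrared detection.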

[2] = biological target: T2, JAK1 (Homo sapiens, UniProt P23458); test: Kinobeads assay, JAK1; assay type: binding; details: mixed Molt4/Ramos lysate, read-out: Inhibition values (IC50) JAK1
T2 construct: endogenous in cells; host or cells: Molt4 (ATCC CRL-1582) and Ramos (ATCC CRL-1596), mixed lysate 1:2
T2 sequence (P23458 whole entry): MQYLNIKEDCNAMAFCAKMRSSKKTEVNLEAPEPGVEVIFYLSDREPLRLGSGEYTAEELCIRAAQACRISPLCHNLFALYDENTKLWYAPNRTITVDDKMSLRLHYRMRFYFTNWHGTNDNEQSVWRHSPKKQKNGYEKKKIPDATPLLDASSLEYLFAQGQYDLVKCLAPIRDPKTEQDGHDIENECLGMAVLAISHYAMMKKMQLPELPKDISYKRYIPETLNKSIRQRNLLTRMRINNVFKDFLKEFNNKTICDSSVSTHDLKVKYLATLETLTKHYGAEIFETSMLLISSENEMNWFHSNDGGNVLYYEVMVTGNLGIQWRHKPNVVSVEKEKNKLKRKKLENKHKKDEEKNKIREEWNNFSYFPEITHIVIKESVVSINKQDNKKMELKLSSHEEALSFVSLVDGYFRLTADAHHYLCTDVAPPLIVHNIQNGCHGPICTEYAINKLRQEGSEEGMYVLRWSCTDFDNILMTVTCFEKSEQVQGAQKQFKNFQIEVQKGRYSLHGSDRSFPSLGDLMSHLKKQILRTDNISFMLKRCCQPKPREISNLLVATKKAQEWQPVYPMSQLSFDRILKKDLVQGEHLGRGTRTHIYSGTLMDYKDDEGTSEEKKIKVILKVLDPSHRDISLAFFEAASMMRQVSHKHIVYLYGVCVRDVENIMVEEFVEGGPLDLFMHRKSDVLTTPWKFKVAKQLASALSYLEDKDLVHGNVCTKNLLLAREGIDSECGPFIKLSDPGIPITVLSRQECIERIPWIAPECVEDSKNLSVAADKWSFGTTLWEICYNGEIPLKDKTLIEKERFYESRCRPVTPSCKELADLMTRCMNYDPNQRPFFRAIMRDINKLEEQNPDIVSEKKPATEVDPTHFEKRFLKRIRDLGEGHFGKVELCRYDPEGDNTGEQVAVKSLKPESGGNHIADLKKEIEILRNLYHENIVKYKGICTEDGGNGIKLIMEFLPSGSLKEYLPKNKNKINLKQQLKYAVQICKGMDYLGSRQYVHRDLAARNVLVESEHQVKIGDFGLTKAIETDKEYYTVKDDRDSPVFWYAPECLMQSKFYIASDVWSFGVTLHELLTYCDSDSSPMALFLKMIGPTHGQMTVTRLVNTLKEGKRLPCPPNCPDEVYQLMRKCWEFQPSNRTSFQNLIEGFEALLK
Summary of the method: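 Competitive pulldown in combined Molt4 and Ramos lysates (1 vs 2 volumes): compound, as a nine-point 1:3 series, and kinobeads were shaken together for 3 hours in a cold room. Captured JAK1 was quantified on an infrared-read antibody dot blot and IC50 calculated. Controls held 2% DMSO without compound.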

T1 sequence (O60674 whole entry): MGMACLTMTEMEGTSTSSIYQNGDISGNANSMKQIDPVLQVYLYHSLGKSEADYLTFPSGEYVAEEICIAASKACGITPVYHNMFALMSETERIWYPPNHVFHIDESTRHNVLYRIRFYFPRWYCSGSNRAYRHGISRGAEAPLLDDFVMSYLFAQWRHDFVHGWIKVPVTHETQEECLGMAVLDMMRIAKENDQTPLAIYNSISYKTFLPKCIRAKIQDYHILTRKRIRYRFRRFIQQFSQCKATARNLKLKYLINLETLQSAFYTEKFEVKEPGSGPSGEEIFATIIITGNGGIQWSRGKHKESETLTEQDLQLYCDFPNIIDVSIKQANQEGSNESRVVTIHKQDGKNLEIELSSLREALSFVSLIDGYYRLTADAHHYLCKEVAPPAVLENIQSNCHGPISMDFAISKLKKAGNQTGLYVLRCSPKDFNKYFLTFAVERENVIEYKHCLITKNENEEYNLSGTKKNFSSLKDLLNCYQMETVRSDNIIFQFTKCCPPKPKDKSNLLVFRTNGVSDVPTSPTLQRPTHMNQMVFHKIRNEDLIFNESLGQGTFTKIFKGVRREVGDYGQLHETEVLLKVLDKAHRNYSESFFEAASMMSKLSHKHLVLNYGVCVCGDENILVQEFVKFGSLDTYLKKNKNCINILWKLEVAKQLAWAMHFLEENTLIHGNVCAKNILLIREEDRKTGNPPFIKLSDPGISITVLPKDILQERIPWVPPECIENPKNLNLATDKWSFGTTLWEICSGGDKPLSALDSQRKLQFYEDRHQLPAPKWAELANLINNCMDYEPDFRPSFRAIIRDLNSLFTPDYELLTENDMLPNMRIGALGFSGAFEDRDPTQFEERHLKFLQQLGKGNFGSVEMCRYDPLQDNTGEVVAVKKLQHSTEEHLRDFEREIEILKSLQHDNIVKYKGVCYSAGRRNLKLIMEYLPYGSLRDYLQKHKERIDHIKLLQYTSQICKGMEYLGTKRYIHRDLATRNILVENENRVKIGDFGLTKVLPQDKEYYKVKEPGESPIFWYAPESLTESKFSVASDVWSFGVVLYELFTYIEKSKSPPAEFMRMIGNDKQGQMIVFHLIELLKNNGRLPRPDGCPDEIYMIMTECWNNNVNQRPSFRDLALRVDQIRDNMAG

SMILES	IC50 [1]	IC50 [2]
NC(=O)Cn1cc(Nc2ncc(Cl)c(N[C@H](CO)c3ccccc3)n2)cn1 [Compound 56]	1000 to 10000 nM	100 to 1000 nM
NC(=O)Cn1cc(Nc2ncc(Cl)c(N[C@H](CO)c3ccccc3F)n2)cn1 [Compound 78]	1000 to 10000 nM	< 100 nM
Cn1cc(Nc2ncc(Cl)c(NC(CO)c3c(F)cccc3F)n2)cn1 (stereo not drawn) [Compound 44]	1000 to 10000 nM	1000 to 10000 nM
OCCn1ccc(Nc2ncc(Cl)c(NC(CO)c3ccccc3F)n2)n1 (stereo not drawn) [Compound 50]	≥ 10000 nM	> 10000 nM
O=C(O)Cn1cc(Nc2ncc(Cl)c(N[C@H](CO)c3ccccc3)n2)cn1 [Compound 24]	≥ 10000 nM	1000 to 10000 nM
Cc1cnc(Nc2cnn(CC(F)F)c2)nc1N[C@H](CO)c1cc(F)cc(F)c1 [Compound 167]	1000 to 10000 nM	1000 to 10000 nM
OCCn1cc(Nc2ncc(Cl)c(NC(CO)Cc3ccccc3)n2)cn1 (stereo not drawn) [Compound 19]	1000 to 10000 nM	100 to 1000 nM
Cn1cc(Nc2ncc(Cl)c(NC(CO)Cc3ccccc3)n2)cn1 (stereo not drawn) [Compound 14]	1000 to 10000 nM	1000 to 10000 nM
CN(C)C(=O)Cn1cc(Nc2ncc(Cl)c(N[C@H](CO)c3ccccc3)n2)cn1 [Compound 30]	1000 to 10000 nM	100 to 1000 nM
Cn1cc(Nc2ncc(Cl)c(NC(CO)c3cccc(N4CC5(COC5)C4)c3)n2)cn1 (stereo not drawn) [Compound 53]	≥ 10000 nM	> 10000 nM
Cn1cc(Nc2ncc(Cl)c(N[C@H](C(=O)N3CCCCC3)c3ccccc3)n2)cn1 [Compound 49]	≥ 10000 nM	1000 to 10000 nM
Cn1cc(Nc2ncc(Cl)c(NC(CO)c3cccc(F)c3)n2)cn1 (stereo not drawn) [Compound 40]	1000 to 10000 nM	1000 to 10000 nM
OC[C@@H](Nc1nc(Nc2cn[nH]c2)ncc1Cl)c1ccccc1 [Compound 75]	1000 to 10000 nM	1000 to 10000 nM
COc1ccccc1[C@@H](CO)Nc1nc(Nc2cnn(C)c2)ncc1Cl [Compound 74]	1000 to 10000 nM	100 to 1000 nM
O=C([C@@H](Nc1nc(Nc2cnn(CCO)c2)ncc1Cl)c1ccccc1)N1CCCCC1 [Compound 51]	≥ 10000 nM	> 10000 nM
OCCn1cc(Nc2ncc(Cl)c(NC(CO)c3c(F)cccc3F)n2)cn1 (stereo not drawn) [Compound 43]	1000 to 10000 nM	100 to 1000 nM
CN(CC#N)C(=O)Cn1cc(Nc2ncc(Cl)c(N[C@H](CO)c3ccccc3)n2)cn1 [Compound 70]	1000 to 10000 nM	100 to 1000 nM
CNC(=O)Cn1cc(Nc2ncc(Cl)c(N[C@H](CO)c3cccnc3)n2)cn1 [Compound 170]	1000 to 10000 nM	1000 to 10000 nM
CN(C)C(=O)[C@@H](Nc1nc(Nc2cnn(C)c2)ncc1Cl)c1ccccc1 [Compound 25]	≥ 10000 nM	1000 to 10000 nM
OCCn1cc(Nc2ncc(Cl)c(NC(CO)c3ccccc3F)n2)cn1 (stereo not drawn) [Compound 36]	1000 to 10000 nM	100 to 1000 nM

SMILES	IC50 [1]	IC50 [2]
CC(C)(O)Cn1cc(Nc2ncc(Cl)c(NC(CO)c3ccccc3F)n2)cn1 (stereo not drawn) [Compound 57]	≥ 10000 nM	1000 to 10000 nM
CNC(=O)[C@@H](Nc1nc(Nc2cnn(C)c2)ncc1Cl)c1ccccc1 [Compound 20]	≥ 10000 nM	1000 to 10000 nM
COc1ccccc1[C@@H](CO)Nc1nc(Nc2cnn(CCO)c2)ncc1Cl [Compound 76]	1000 to 10000 nM	100 to 1000 nM
Cn1cc(Nc2ncc(Cl)c(NC(CO)c3ccccc3)n2)cn1 (stereo not drawn) [Compound 1]	≥ 10000 nM	1000 to 10000 nM
Cn1cc(Nc2ncc(F)c(NC(CO)c3ccccc3)n2)cn1 (stereo not drawn) [Compound 2]	≥ 10000 nM	> 10000 nM
COc1cccc([C@@H](CO)Nc2nc(Nc3cnn(C)c3)ncc2Cl)c1 [Compound 82]	≥ 10000 nM	1000 to 10000 nM
CNC(=O)Cn1cc(Nc2ncc(Cl)c(NC(CO)c3ccccc3F)n2)cn1 (stereo not drawn) [Compound 33]	1000 to 10000 nM	1000 to 10000 nM
OCCn1cc(Nc2ncc(Cl)c(NC(CO)c3ccc(F)cc3)n2)cn1 (stereo not drawn) [Compound 72]	≥ 10000 nM	1000 to 10000 nM
CN(C)C(=O)[C@@H](Nc1nc(Nc2cnn(CCO)c2)ncc1Cl)c1ccccc1 [Compound 26]	1000 to 10000 nM	1000 to 10000 nM
CNC(=O)Cn1cc(Nc2ncc(Cl)c(N[C@H](CO)c3ccccc3)n2)cn1 [Compound 23, (S)-2-(4-((5-chloro-4-((2-hydroxy-1-phenylethyl)amino)pyrimidin-2-yl)amino)-1H-pyrazol-1-yl)-N-methylacetamide]	1000 to 10000 nM	100 to 1000 nM
CC(C)(O)Cn1cc(Nc2ncc(Cl)c(NC(CO)c3cccc(F)c3)n2)cn1 (stereo not drawn) [Compound 61]	1000 to 10000 nM	1000 to 10000 nM
CC(C)(O)Cn1cc(Nc2ncc(Cl)c(NC(CO)c3c(F)cccc3F)n2)cn1 (stereo not drawn) [Compound 62]	≥ 10000 nM	1000 to 10000 nM
OCCn1cc(Nc2ncc(Cl)c(N[C@H](CO)c3ccccn3)n2)cn1 [Compound 80]	1000 to 10000 nM	100 to 1000 nM
Cn1cc(Nc2ncc(Cl)c(NC(CO)c3cccc(-c4cnn(C)c4)c3)n2)cn1 (stereo not drawn) [Compound 69]	≥ 10000 nM	> 10000 nM
Cn1cc(Nc2ncc(Cl)c(NC(CO)c3ccccc3F)n2)cn1 (stereo not drawn) [Compound 37]	1000 to 10000 nM	1000 to 10000 nM
Cc1cnc(Nc2cnn(CC(=O)N3CCOCC3)c2)nc1NC(CO)c1c(F)cccc1F (stereo not drawn) [Compound 169]	1000 to 10000 nM	1000 to 10000 nM
Cc1cnc(Nc2cnn(CC(F)F)c2)nc1NC(CO)c1c(F)cccc1F (stereo not drawn) [Compound 168]	≥ 10000 nM	1000 to 10000 nM
CCOC(=O)Cn1cc(Nc2ncc(Cl)c(N[C@H](CO)c3ccccc3)n2)cn1 [Compound 22]	1000 to 10000 nM	100 to 1000 nM
Cn1cc(Nc2ncc(Cl)c(N[C@H](C(=O)NC3CCCC3)c3ccccc3)n2)cn1 [Compound 59]	≥ 10000 nM	> 10000 nM

Second part, the molecule after the results:

IC50 [1]	IC50 [2]	SMILES
≥ 10000 nM	1000 to 10000 nM	COC(=O)C(Nc1nc(Nc2cnn(CCO)c2)ncc1Cl)c1ccccc1 (stereo not drawn) [Compound 15]
100 to 1000 nM	100 to 1000 nM	OCCn1cc(Nc2ncc(Cl)c(NC(CO)c3cccc(F)c3)n2)cn1 (stereo not drawn) [Compound 39]
1000 to 10000 nM	100 to 1000 nM	NC(=O)Cn1cc(Nc2ncc(Cl)c(N[C@H](CO)c3ccccn3)n2)cn1 [Compound 81]
1000 to 10000 nM	1000 to 10000 nM	CNC(=O)Cn1cc(Nc2ncc(Cl)c(NC(CO)c3cccc(F)c3)n2)cn1 (stereo not drawn) [Compound 32]
1000 to 10000 nM	1000 to 10000 nM	Cn1cc(Nc2ncc(Cl)c(NC(C(=O)O)c3ccccc3)n2)cn1 (stereo not drawn) [Compound 18]
1000 to 10000 nM	1000 to 10000 nM	Cn1cc(Nc2ncc(Cl)c(N[C@H](C(=O)NCCO)c3ccccc3)n2)cn1 [Compound 46]
100 to 1000 nM	1000 to 10000 nM	O=C(c1cc(Nc2ncc(Cl)c(N[C@H](CO)c3ccccc3)n2)c[nH]1)N1CCOCC1 [Compound 13]
1000 to 10000 nM	100 to 1000 nM	COCCNC(=O)[C@@H](Nc1nc(Nc2cnn(CCO)c2)ncc1Cl)c1ccccc1 [Compound 48]
≥ 10000 nM	1000 to 10000 nM	CCNC(=O)[C@@H](Nc1nc(Nc2cnn(CCO)c2)ncc1Cl)c1ccccc1 [Compound 27]
1000 to 10000 nM	1000 to 10000 nM	COc1cccc([C@@H](CO)Nc2nc(Nc3cnn(CCO)c3)ncc2Cl)c1 [Compound 83]
1000 to 10000 nM	1000 to 10000 nM	OCC[C@@H](Nc1nc(Nc2cnn(CCO)c2)ncc1Cl)c1ccccc1 [Compound 65]
≥ 10000 nM	> 10000 nM	Cn1cc(Nc2ncc(Cl)c(N[C@@H](CO)c3ccccc3)n2)cn1 [Compound 54]
≥ 10000 nM	1000 to 10000 nM	O=C(NC1CCCC1)[C@@H](Nc1nc(Nc2cnn(CCO)c2)ncc1Cl)c1ccccc1 [Compound 60]
1000 to 10000 nM	100 to 1000 nM	CC(O)Cn1cc(Nc2ncc(Cl)c(NC(CO)c3cccc(F)c3)n2)cn1 (stereo not drawn) [Compound 38]
1000 to 10000 nM	100 to 1000 nM	OCCn1cc(Nc2ncc(Cl)c(N[C@H](CO)c3ccccc3F)n2)cn1 [Compound 77]
≥ 10000 nM	1000 to 10000 nM	COc1cccc([C@@H](CO)Nc2nc(Nc3cnn(CC(N)=O)c3)ncc2Cl)c1 [Compound 84]
1000 to 10000 nM	1000 to 10000 nM	CNC(=O)Cn1cc(Nc2ncc(Cl)c(NC(CO)c3c(F)cccc3F)n2)cn1 (stereo not drawn) [Compound 31]
≥ 10000 nM	> 10000 nM	O=C(O)C(Nc1nc(Nc2cnn(CCO)c2)ncc1Cl)c1ccccc1 (stereo not drawn) [Compound 17]
1000 to 10000 nM	1000 to 10000 nM	Cn1cc(Nc2ncc(Cl)c(N[C@H](C(=O)N3CCCC3)c3ccccc3)n2)cn1 [Compound 34]
1000 to 10000 nM	1000 to 10000 nM	Cn1cc(Nc2ncc(Cl)c(N[C@H](CO)c3ccccc3F)n2)cn1 [Compound 58]
1000 to 10000 nM	1000 to 10000 nM	CC(O)Cn1cc(Nc2ncc(Cl)c(NC(CO)c3c(F)cccc3F)n2)cn1 (stereo not drawn) [Compound 42]
≥ 10000 nM	1000 to 10000 nM	COC(=O)C(Nc1nc(Nc2cnn(C)c2)ncc1Cl)c1ccccc1 (stereo not drawn) [Compound 16]
≥ 10000 nM	> 10000 nM	OCCn1ccc(Nc2ncc(Cl)c(NC(CO)c3c(F)cccc3F)n2)n1 (stereo not drawn) [Compound 45]
≥ 10000 nM	1000 to 10000 nM	Cn1cc(Nc2ncc(Cl)c(NC(CO)c3ccc(F)cc3)n2)cn1 (stereo not drawn) [Compound 71]
1000 to 10000 nM	1000 to 10000 nM	CC(C)(C(N)=O)n1cc(Nc2ncc(Cl)c(N[C@H](CO)c3ccccc3F)n2)cn1 [Compound 73]
1000 to 10000 nM	100 to 1000 nM	O=C(NCCO)[C@@H](Nc1nc(Nc2cnn(CCO)c2)ncc1Cl)c1ccccc1 [Compound 47]
1000 to 10000 nM	100 to 1000 nM	O=C(Cn1cc(Nc2ncc(Cl)c(N[C@H](CO)c3ccccc3)n2)cn1)NC1CC1 [Compound 68]

Source: patent US20140179664A1, “Heterocyclyl Pyrimidine Analogues As JAK Inhibitors” (Cellzome Limited, priority 2011, published 2014)
